Entries after “also recorded” stand apart in the source; their conditions may differ.
Legend:
hTRPV6 = target: T1, hTRPV6 (Homo sapiens, UniProt Q9H1D0); experiment: Patch clamp selectivity, hTRPV6; assay type: cell-based; settings: hTRPV6 vs TRPA1
T1 sequence (Q9H1D0 1-765): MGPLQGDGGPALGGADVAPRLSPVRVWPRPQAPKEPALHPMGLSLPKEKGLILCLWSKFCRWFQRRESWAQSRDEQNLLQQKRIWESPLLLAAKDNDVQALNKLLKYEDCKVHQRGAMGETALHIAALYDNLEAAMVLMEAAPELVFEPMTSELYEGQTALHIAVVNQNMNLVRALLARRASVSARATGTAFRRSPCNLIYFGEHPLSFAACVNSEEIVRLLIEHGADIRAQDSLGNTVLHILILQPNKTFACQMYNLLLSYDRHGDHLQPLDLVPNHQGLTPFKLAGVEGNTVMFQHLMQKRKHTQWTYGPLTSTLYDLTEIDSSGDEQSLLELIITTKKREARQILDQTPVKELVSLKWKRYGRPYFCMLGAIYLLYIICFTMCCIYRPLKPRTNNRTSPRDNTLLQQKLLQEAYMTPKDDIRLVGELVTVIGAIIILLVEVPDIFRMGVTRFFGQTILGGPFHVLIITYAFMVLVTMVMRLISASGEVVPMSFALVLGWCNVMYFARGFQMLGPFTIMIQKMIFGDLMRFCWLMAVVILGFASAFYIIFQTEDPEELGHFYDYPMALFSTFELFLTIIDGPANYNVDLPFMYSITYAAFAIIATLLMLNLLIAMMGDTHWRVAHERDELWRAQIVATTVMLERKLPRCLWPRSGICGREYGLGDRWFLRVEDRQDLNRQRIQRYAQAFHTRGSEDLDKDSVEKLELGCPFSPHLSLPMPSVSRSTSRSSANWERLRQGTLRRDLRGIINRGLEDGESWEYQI
Experimental: Data for TRPA1 inhibition and the selectivity of TRPA1 inhibition was obtained by this method for the compound of Formula (Ia) and included in Table 1 and Table 2. All currents were recorded in whole-cell configuration using EPC-9 and EPC-10 amplifiers and Patchmaster software (HEKA). […] The standard pipette solution consisted of 140 mM CsAsp, 10 mM EGTA, 10 mM HEPES, 2.27 mM MgCl2, 1.91 mM CaCl2, 4 mM MgATP, and 0.1-0.3 mM Na2GTP, with pH adjusted to 7.2 with CsOH. In addition, a solution containing 145 mM CsCl, 10 mM HEPES, 10 mM EGTA and 1 mM MgCl2 (pH 7.2 adjusted with CsOH) can be used. The standard bath solution contained 150 mM NaCl, 10 mM HEPES, 10 mM glucose, 4.5 mM KCl, 1 mM EGTA, 3 mM MgCl2, with pH adjusted to 7.4 with NaOH. In some instances, 2 mM CaCl2 was added in place of EGTA and the concentration of MgCl2 was reduced to 1 mM.
Data were collected either by continuous recordings at −60 mV or by applying voltage ramps from a holding potential of 0 mV every 4 s. […] Inward and outward currents were analyzed from the ramps at −80 and 80 mV, respectively. […]
Solutions were switched using a gravity-fed continuous focal perfusion system. […] Temperatures were confirmed using a thermistor (Warner Instruments, TA-29), with temperatures at the recorded cell estimated to be within +/−2° C. of those reported. […]

[1] = test system: CFA-induced cold allodynia; experiment: Complete Freund's Adjuvant (CFA) cold allodynia rodent pain model; assay type: in vivo, rat; settings: in words
Experimental: The compound of Formula (Ia) is also active in rodent models of pain in vivo induced by cold allodynia following chronic Complete Freund's Adjuvant-induced inflammation, as described in Example 6. […] The compound of Formula (Ia), the comparator compound of Formula (II) and ketoprofen were tested by the CFA-induced pain test method reported in del Camino et al., J. Neurosci., 30(45):15165-15174, incorporated herein by reference in its entirety. Briefly, the hind paw is sensitized to cold temperature (allodynic), by administering 0.1 mL of Complete Freund's Adjuvant (CFA) is administered to the left hind paw. 2-3 days later, the time taken for the animal to lift its CFA-injected paw is recorded compared to its un-injected normal right hind paw. […] To avoid tissue damage the maximum cut-off time is 5 minutes. Animals that are allodynic (average PWL to the first three pain behaviors<150 seconds for the CFA-injected hind paw: ˜≧50% difference between the normal and CFA-injected paw) are included in the study and subsequently randomized across treatment groups. The following day, the animals are dosed under blinded conditions. Following the 1-2 hour pre-treatment time, the post-dose PWL readings are again taken. The efficacy of the drug treatment is assessed by comparing the PWL in the drug treatment animals to those animals that receive the vehicle.

female rats = experiment: 7-day i.p. repeat dose screening toxicity study; assay type: in vivo, rat; settings: female rats, 50 mg/kg/day i.p. for 7 consecutive days
Experimental: The compound of Formula (Ia) was evaluated in a 7-day repeat dose screening toxicity study in female rats. In order to maximize systemic exposure, rats were administered compound of Formula (Ia) i.p. at 50 mg/kg/day for 7 consecutive days, to obtain the results shown in FIG. 6. Clinical chemistry parameters were evaluated on Days 3 and 8. Histopathology was performed on select organs including the liver, kidney, spleen, and lung.

Fold Selectivity Compared to TRPA1 (hTRPV6): ~370 Fold
Compound: C[C@H]1CCCN1c1ncc(-c2cccc(NC(=O)Cn3cnc4c3c(=O)n(C)c(=O)n4C)n2)cn1 [Formula (Ia)]
effect on cold allodynia [1]: has an analgesic effect on cold allodynia
histopathology of liver, kidney, spleen, lung (female rats; 50 mg/kg/day): No histopathological findings in the liver, kidney, spleen, or lung; also recorded: no adverse effects
clinical signs, body weight, clinical chemistry parameters (female rats; Days 3 and 8): no adverse clinical signs, changes in body weight, or changes in clinical chemistry parameters were noted

From US9193729B2, “Inhibiting transient receptor potential ion channel TRPA1” (Cubist Pharmaceuticals, Inc., priority 2011, dated 2015)
